The record followed here is patent US20110105554A1, “MEANS FOR TREATING MYOSIN-RELATED DISEASES” (KINARIS BIOMEDICALS GMBH, priority 2007, published 2011).

The subject of series [1] is Saccharomyces cerevisiae cells. The series can be described thus: Myo2p-dependent changes in mitochondrial morphology in yeast. The format is cell-based. The procedure:
FIG. 13: Myo2p-dependent changes in mitochondrial morphology. In yeast cells, the class-5 myosins Myo2p is responsible for the distribution of mitochondria between mother and daughter cells during cytokinesis and has be shown to affect mitochondrial morphology during […]. […] Insets show the same cells viewed under transmitted light. Bar: 5 μm
To test the specific inhibition of myosin-5 function in a cellular context, we exposed Saccharomyces cerevisiae cells to 100 to 500 nM PBP. S. cerevisiae has five myosin heavy chain genes: a myosin-2, two class-1 myosins, and the class-5 myosins Myo2p and Myo4p. Myo2p plays a crucial role in polarized distribution of mitochondria and is required for retention of newly inherited mitochondria in yeast cells during cell division^4-6. Myo4p is required for mRNA transport and facilitates movement of ER tubules into the growing bud. Myo4p null mutants are viable and display no detectable phenotype. Deletion of the myo3 and myo5 genes, encoding class-1 myosins, leads to severe defects in growth and actin cytoskeletal organization. Severe growth defects are also observed upon depletion of the class-2 myosin Myo1p. Therefore, we expected that selective inhibition of class-5 myosins will produce readily detectable changes in the morphology of mitochondria without affecting cell growth and cytokinesis. To facilitate the visual inspection of mitochondrial morphology, we transfected the cells used for these experiments with an expression vector for the production of mitochondria-targeted GFP^7. A yeast mutant strain with myo2 expression under the control of the TetO7 promoter was used as control^8. Repression of the TetO7 promoter by the addition of 10 μg/ml deoxycycline to the culture medium of this strain led to an apparent fragmentation of mitochondria.
Myo2p-dependent changes in mitochondrial morphology. […] Yeast strains producing mitochondria-targeted GFP were supplied by Dr. B. Westermann^7, allowing us to study the morphology of yeast mitochondria in a fluorescence microscope. […] Cells were analyzed at the end of the logarithmic growth phase. […]

The subject of series [2] is skinned muscle fibre preparations from rabbit psoas muscle. The series can be described thus: Isometric force measurement on skinned muscle fibres. From the text: To test the effect of PBP on fully assembled myofilament arrays, we examined the contractile properties of skinned muscle fibre preparations from rabbit psoas muscle. Pentabromopseudilin leads to a more than 4-fold reduction in isometric force development of skinned muscle fibre preparations from rabbit psoas muscle. The Ki is in the same range as that determined for actomyosin ATPase activity. (FIG. 12)

The test system of series [3] is heavy meromyosin (HMM) prepared from rabbit skeletal muscle myosin-2. The series can be described thus: Inhibitor screening: colorimetric high-throughput myosin ATPase assay with HMM. The format is biochemical. From the text:
Preferably, said activity is the capability of said myosin (i) to bind actin; (ii) to convert ATP into ADP and Pi; and/or (iii) to generate force and/or movement. Exemplary or preferred binding assays are described herein above and can be applied for determining whether myosin binds actin, preferably F-actin, and/or nucleotides. Exemplary or preferred activity assays are described herein below and can be applied for determining whether myosin is capable of converting ATP into ADP and Pi or of force production and generation of movement. An exemplary assay for ATPase activity is based on the detection of free phosphate formed upon cleavage of ATP, wherein the detection is effected using malachite green. For an exemplary workflow, see FIG. 17.
FIG. 6: Histogram showing the relative myosin-2 ATPase activity measured in the absence (+control) and presence of halogenated alkaloids. Blebbistatin und BTS were used as controls. Compounds of the HET-series, BTS and blebbistatin were used at 25 μM final concentration. HET-43 is PBP (pentabromopseudilin). […]
Inhibitor screening. […] The amount of dye formed after 20 min color development at room temperature was determined with a Tecan Infinite™ microplate reader (Cralisheim, Germany).

Series [4] can be described thus: Development toxicity testing on medaka embryos. The settings on record: medaka, in vivo. The protocol:
(a) KIN-43 in concentrations between 0.5 μM and 100 μM were incubated for 48 h with 20 medaka embryos per concentration. […] (b) Light microscopy image of embryo after 48 h in the absence of KIN-43.
We are using a library of common organic molecules and functional groups and are applying an empirical force field description of the nonbonding interactions between a ligand and the binding site in order to build up de novo compounds with spatial and electrostatic properties complementary to the allosteric binding site.

In general, LC50 refers to the concentration lethal to half of the exposed cells or organisms. A lower LC50 goes with a more lethal substance. For `Oc1c(Br)cc(Br)cc1-c1[nH]c(Br)c(Br)c1Br` [KIN-43], the mitochondrial morphology entry in series [1] (100 nM PBP) is “closely resembled that of untreated wild-type cells”; in series [1] (500 nM PBP, 12 hours, wild-type cells, listed as PBP) it was “phenotype of Myo2p-depleted cells can be phenocopied”. The “growth kinetics of yeast cells” value in series [1] (500 nM, listed as PDP) was “almost the same growth kinetics as wild type control cultures”. In series [2], the “fold reduction in isometric force development” value is listed as “more than 4 fold”. Further, the “inhibition of HMM ATPase activity” value in series [3] is on record as “very potent inhibitor”. Also, in series [4], the LC50 at 48 h came out at 3 µM.
